According to ChEMBL document CHEMBL1201862, “PubChem BioAssay data set” (2004):
Active and inactive are the calls of the source.

Assays:
[1] = molecular target: T1, High affinity choline transporter 1 (Homo sapiens, UniProt Q9GZV3); assay: human choline transporter blockers, potency – cell-based, 5-point CRC, membrane potential dye, dose response (AID 504840); format: functional
T1 sequence (Q9GZV3 whole entry): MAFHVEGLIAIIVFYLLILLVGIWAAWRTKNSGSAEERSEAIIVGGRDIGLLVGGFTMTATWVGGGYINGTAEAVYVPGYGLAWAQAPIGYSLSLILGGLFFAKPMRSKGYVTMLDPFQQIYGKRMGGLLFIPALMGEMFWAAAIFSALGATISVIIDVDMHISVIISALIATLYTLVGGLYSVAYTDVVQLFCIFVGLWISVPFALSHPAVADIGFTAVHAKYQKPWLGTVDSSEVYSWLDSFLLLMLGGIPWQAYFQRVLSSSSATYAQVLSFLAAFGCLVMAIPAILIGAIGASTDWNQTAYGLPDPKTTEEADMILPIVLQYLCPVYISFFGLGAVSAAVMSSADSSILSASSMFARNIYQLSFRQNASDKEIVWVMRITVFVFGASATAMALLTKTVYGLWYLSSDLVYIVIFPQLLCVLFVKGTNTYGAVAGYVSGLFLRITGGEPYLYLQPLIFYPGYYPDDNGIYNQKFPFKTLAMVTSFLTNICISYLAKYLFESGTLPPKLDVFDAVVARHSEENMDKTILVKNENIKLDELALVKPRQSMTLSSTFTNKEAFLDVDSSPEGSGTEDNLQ

Nonstructural protein 1 = Nonstructural protein 1 (Influenza A virus, UniProt Q194T2); format: functional, Influenza A virus (A/California/07/2009(H1N1))
Chain of Nonstructural protein 1 (Q194T2 whole entry): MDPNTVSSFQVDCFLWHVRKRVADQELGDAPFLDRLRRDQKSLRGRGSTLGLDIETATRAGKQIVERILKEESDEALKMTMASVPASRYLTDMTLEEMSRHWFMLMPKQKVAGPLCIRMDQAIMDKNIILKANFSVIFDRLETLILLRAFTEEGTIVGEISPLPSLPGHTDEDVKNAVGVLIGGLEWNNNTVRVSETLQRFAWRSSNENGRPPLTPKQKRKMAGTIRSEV

[2] = NIH3T3 cell viability loss – ATP luminescence, mouse fibroblasts, counter-screen, dose response (AID 2010); format: functional, cell-based;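 note: cells exposed to compound for about 90 hours before reading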
[3] = THP-1 cell cytotoxicity, dose response, cytotoxicity control for non-replicating M. tuberculosis project (AID 489025); format: functional
[4] = Trypanosoma cruzi growth suppression in host cells – NIH3T3 host cells, beta-gal luminescence, confirmation (AID 2044); format: functional, cell-based;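 note: intracellular parasites grown in NIH/3T3 mouse fibroblasts as host cells; luminescent beta-galactosidase reporter signal from transgenic T. cruzi replicating inside host cells; inhibitors lower the luminescence signal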
cells = format: functional
[5] = A549 cell cytotoxicity, dose response, cytotoxicity control, plate reader, cherry-pick, antagonist series (AID 743412); format: functional, cell-based
[6] = HEK-293T viability loss after treatment – luminescence, T-cell screen hits, cytotoxicity control for TCR NF-kB inhibitor project, dose response (AID 489026); format: functional, cell-based;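 note: cells exposed to compound about 14 hours before the viability readout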
[7] = molecular target: Heat shock protein HSP 90-alpha (Homo sapiens, UniProt P07900); format: functional, organism-based
[8] = reduction of Shn3 3'UTR-driven luciferase in osteoblasts – cell-based, Clone20 osteoblasts, firefly luciferase, cherry-picked, dose response (AID 624132); format: functional;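 note: firefly luciferase luminescence from reporter carrying the Shn3 3'UTR in osteoblasts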
[9] = loss of viability in HepG2 cells – cell-based, CellTiter-Glo, cherry-picked, cytotoxicity control for Shn3 inhibitor project, dose response (AID 624134); format: functional
[10] = non-specific 3'UTR reporter inhibition in Clone20-Shn3RL – cell-based, Renilla luciferase, cherry-picked, counter-screen for Shn3 inhibitor project, dose response (AID 624133); format: functional
SN12K1 = assay: cells; format: functional; details: Homo sapiens
P388/ADR = assay: cells; format: functional; details: Mus musculus
[11] = molecular target: T2, Ubiquitin-conjugating enzyme E2 N (Homo sapiens, UniProt P61088); format: functional;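 note: Dose-response confirmation in a TR-FRET assay detecting UBC13-driven polyubiquitin chain formation, inhibition measured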
T2 sequence (P61088 whole entry): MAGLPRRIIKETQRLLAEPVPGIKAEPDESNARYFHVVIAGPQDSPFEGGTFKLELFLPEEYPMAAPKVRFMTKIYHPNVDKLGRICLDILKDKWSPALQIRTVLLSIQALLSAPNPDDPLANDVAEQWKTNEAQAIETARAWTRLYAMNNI

BJ [12] = assay: BJ-TERT fibroblast viability loss – cell-based, RAS-independent, luminescence, dose response (AID 1933); format: functional; details: Homo sapiens
[13] = DRD fibroblast viability loss – cell-based, non-viral oncogenic, luminescence, dose response (AID 1934); format: functional; details: Homo sapiens
BJ [14] = assay: cells; format: functional, cell-based; details: Homo sapiens
BJ [15] = assay: BJ-TERT-LT-ST fibroblast viability loss – cell-based, RAS-independent, luminescence, dose response (AID 1935); format: functional; details: Homo sapiens;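 note: BJ fibroblasts immortalized with TERT plus LT and ST oncogenes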
INS1 = assay: INS-1E survival protection against cytokine death – cell-based, luminescence, retest, dose response (AID 449756); format: functional; details: Rattus norvegicus;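 note: cell death triggered by IL-1 beta plus TNF-alpha plus IFN-gamma mixture; protective hits raise ATP signal compared with cytokine alone wells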
[16] = Luminescence Cell-Based Dose Retest to Confirm Inhibitors of Cancer Stem Cells. [Related pubchem assays (depositor defined):AID2717, AID2721]; format: functional; details: Homo sapiens

CCc1c(C)nc2ccccc2c1O
IC50 [1]: 13.2 µM (active)

Oc1ccc(C=NNC(=S)Nc2ccc(F)cc2)c(O)c1
IC50 (Nonstructural protein 1): 14.6 µM (active)

Cc1ccc(OCCCCn2ccnc2)c(Cl)c1
EC50 [2]: > 60 µM (not active)
CC50 [3]: > 40 µM (active)
EC50 [4]: 1.37 µM (active)
IC50 (cells): 39.1 µM (active)

Cc1cc(C)n(CC(=O)N/N=C/c2cc([N+](=O)[O-])ccc2O)n1
IC50 (Nonstructural protein 1): 10.8 µM (active)

C[C@H](CO)N1C[C@H](C)[C@H](CN(C)C(=O)CN2CCOCC2)Oc2ncc(C#CCN(C)C)cc2C1=O
AC50 [5]: > 52 µM (inactive)

O=C(Sc1cccc2cccnc12)c1ccc(F)cc1
IC50 [6]: > 80 µM (inactive)

CCOC(=O)C1=C(COC(=O)c2ccc(OC(C)C)cc2)NC(=O)NC1C (stereo not given)
IC50 [1]: 16.6 µM (active)

Cc1ccc(N=C(N)Nc2nc(O)cc(CSc3nnc(C)s3)n2)c(C)c1
IC50 [6]: > 80 µM (inactive)

COc1ccc(CCN2C(=O)C3C4C=CC(C3C2=O)C2C(=O)N(CCc3ccc(OC)c(OC)c3)C(=O)C42)cc1OC (stereo not given)
IC50 [6]: > 80 µM (inactive)

C=CCN1C(=O)/C(=N\Nc2c(C)n(C)n(-c3ccccc3)c2=O)C(=O)NC1=S
IC50 (Nonstructural protein 1): 2.29 µM (active)

COc1cc2cnc(-c3ccccc3)c(C(=O)c3ccc(F)cc3)c2cc1OC
AC50 [7]: 2.12 µM (active)

O=C(c1ccc2c(=O)n(-c3ccccc3)c(=S)[nH]c2c1)N1CCCCC1
AC50 [8]: 1.44 µM (active)
AC50 [9]: 64.2 µM (active)
AC50 [10]: 3.14 µM (active)

Cc1ccc(C[S+]([O-])Cc2ccc(C(=O)NC3CCCCCC3)o2)cc1 (stereo not given)
IC50 [1]: 14.5 µM (active)

O=C1C=CC(=O)N1c1ccc2c(c1)Cc1cc(F)ccc1-2
AC50 [7]: < 0.195 µM (active)

O=C(O)/C=C/c1c[nH]cn1
GI50 (SN12K1): > 500 µM (inactive)
GI50 (P388/ADR): > 500 µM (inactive)

NC1=NC[C@H](Cc2ccc(O)cc2)N1CCc1cccc2ccccc12
IC50 [11]: > 20 µM (inactive)
CC50 [3]: > 40 µM (active)
IC50 (cells): 9.5 µM (active)

CC(C)(C)c1nnc(N/N=C/c2ccccc2O)n(N)c1=O
IC50 (Nonstructural protein 1): 5.93 µM (active)
EC50 (BJ [12]): 1.86 µM (active)
EC50 [13]: 2.47 µM (active)
IC50 [6]: > 80 µM (inactive)
EC50 (BJ [14]): 8.53 µM (inconclusive)
EC50 (BJ [15]): 15.1 µM (active)

CCCOc1ccc(/C=N/Nc2cc(N3CCOCC3)ncn2)c(O)c1
AC50 (INS1): 2.27 µM (active)
IC50 [6]: > 80 µM (inactive)
AC50 [16]: 2.87 µM (active)

COC(=O)c1ccc(CSc2nc3c(c(=O)n2-c2ccccc2)SCC3)o1
IC50 (Nonstructural protein 1): > 100 µM (active)

Cc1ccc(NC(=O)C2CCN(S(=O)(=O)c3ccc(N4CCCC4=O)cc3)CC2)cc1Cl
AC50 (INS1): 1.93 µM (active)
AC50 [8]: 0.549 µM (active)
AC50 [9]: > 70 µM (inactive)
AC50 [10]: 0.808 µM (active)

Cc1ccc(-c2cc(C(F)F)n3ncc(C(=O)N4CCc5ccccc54)c3n2)cc1
IC50 [6]: > 80 µM (inactive)

Cc1cc([N+](=O)[O-])c(NC2CCCCC2)c([N+](=O)[O-])c1
IC50 (Nonstructural protein 1): 41.5 µM (active)

O=C(CCSc1nnc(-c2ccncc2)o1)Nc1ccc(Cl)cc1
AC50 [7]: 1.65 µM (active)
IC50 (cells): 29.5 µM (active)

CC(C)(C)C(=O)/C(=C/c1ccc(Cl)cc1)n1cncn1
AC50 [8]: 3.75 µM (active)
AC50 [9]: 18 µM (active)
AC50 [10]: 10.8 µM (active)
